Source: US20240002362A1, “DEUTERATED 2-ARYLHETEROCYCLE-3-OXO-2,3- DIHYDROPYRIDAZINE-4-CARBOXAMIDE INHIBITOR AND PREPARATION METHOD THEREFOR AND APPLICATION THEREOF” (Shanghai Zelgen Pharma. Tech Co., Ltd., priority 2020, published 2024)

Assays:
Type in all cases: in vivo
[1] = Pharmacokinetic test and evaluation in rats; settings: rat, po; male SD rats, gavage 2 mg/kg, plasma, n = 4, mean
Method: Pharmacokinetic Test and Evaluation in Rats
(§1) After male SD rats weighing about 220 g were fasted overnight, the rats were gavaged with 2 mg/kg of a solution of the compound of the present invention [CMC/TW80 as a carrier]. Blood was collected 0.5, 1.0, 2.0, 4.0, 6.0, 8.0, 12 and 24 h after the administration of the compound of the present invention, respectively, and the concentration of the compound of the present invention in plasma was determined by LC/MS/MS.

[2] = Pharmacokinetic test and evaluation in mice; settings: mouse, po; male ICR mice, gavage 2 mg/kg, plasma, n = 4, mean
Method: Pharmacokinetic Test and Evaluation in Mice
as §1, with “ICR mice” for “SD rats”, “20-30” for “220”, “mice” for “rats”

[3] = Pharmacokinetic test and evaluation in beagle dogs; settings: dog, po; male beagle dogs, gavage 2 mg/kg, plasma, n = 4, mean
Method: Pharmacokinetic Test and Evaluation in Beagle Dogs
as §1, with “beagle dogs” for “SD rats”, “6-7 Kg” for “220 g”, “beagle dogs” for “rats”

[4] = test system: mouse colon cancer cells CT26.WT; experiment: Pharmacodynamic test of anti-tumor activity, subcutaneous transplantation cancer model CT26.WT; settings: CT26.WT subcutaneous in nude mice; for TV (mm^3) (Tumor Volume) Day 0: Day 0 (baseline at grouping), 30 mg/Kg daily gavage; for % TGI (Tumor Growth Inhibition) / TV (mm^3) (Tumor Volume) Day 17: Day 17, 30 mg/Kg daily gavage
Method: Pharmacodynamic Test and Evaluation of Anti-Tumor Activity
1. Subcutaneous Transplantation Cancer Model CT26.WT
5×10^5/100 uL of mouse colon cancer cells CT26.WT were subcutaneously inoculated into the right back of nude mice. The mice were monitored daily for health condition, and the measurement was started when tumors grew to be palpable. The tumor volume was calculated by adopting the following formula: 0.5×L×W^2, wherein L and W represent tumor length and width, respectively. When the tumor grew to about 50 mm^3, the mice were randomly grouped. The mice were gavaged daily with a solution of the compound at a corresponding dose (30 mg/Kg) [CMC/TW80 as a carrier], and at the same time, the general state of the mice was monitored. After the administration was started, the mice were weighed twice in the first week, and the tumor volume was measured twice; from the second week, the mice were weighed three times a week, and the tumor volume was measured three times.

Compound	AUC(0-t) [1]	Cmax [1]	AUC(0-t) [2]	Cmax [2]	AUC(0-t) [3]	Cmax [3]	TV (mm^3) (Tumor Volume) Day 0 [4]	% TGI (Tumor Growth Inhibition) [4]	TV (mm^3) (Tumor Volume) Day 17 [4]
C[C@@H](CO)NC(=O)c1cc(-c2ccc(Cl)cc2)nn(-c2cnn(C)c2)c1=O [BAY-2416964, reference compound]	624 ng·h/mL	99.5 ng/mL	1490 ng·h/mL	348 ng/mL	995 ng·h/mL	211 ng/mL	55.81 mm^3	24.7%	1670.91 mm^3
[2H]C([2H])([2H])n1cc(-n2nc(-c3ccc(Cl)cc3)cc(C(=O)N[C@@H](C)CO)c2=O)cn1 [Example 2, (S)-6-(4-chlorophenyl)-N-(1-hydroxypropan-2-yl)-2-(1-(methyl-d3)-1H-pyrazole-4-yl)-3-oxo-2,3-dihydropyridazine-4-carboxamide]	990 ng·h/mL	146 ng/mL	850 ng·h/mL	241 ng/mL	–	–	–	–	–
[2H]C([2H])(O)[C@H](C)NC(=O)c1cc(-c2ccc(Cl)cc2)nn(-c2cnn(C)c2)c1=O [Example 7, (S)-6-(4-chlorophenyl)-N-(1-hydroxypropan-2-yl-1,1-d2)-2-(1-methyl-1H-pyrazole-4-yl)-3-oxo-2,3-dihydropyridazine-4-carboxamide]	736 ng·h/mL	96.6 ng/mL	2460 ng·h/mL	351 ng/mL	–	–	–	–	–
[2H]C([2H])(O)[C@H](C)NC(=O)c1cc(-c2ccc(Cl)cc2)nn(-c2cnn(C([2H])([2H])[2H])c2)c1=O [Example 8, (S)-6-(4-chlorophenyl)-N-(1-hydroxypropan-2-yl-1,1-d2)-2-(1-(methyl-d3)-1H-pyrazole-4-yl)-3-oxo-2,3-dihydropyridazine-4-carboxamide]	1390 ng·h/mL	230 ng/mL	2620 ng·h/mL	351 ng/mL	1880 ng·h/mL	294 ng/mL	55.68 mm^3	50.5%	1117.93 mm^3
